Format in all cases: cell-based
One assay has as its system D. immitis L4 larvae. Description: Dirofilaria immitis, L4 Stage (DiL4) In Vitro Assay. As to conditions: for minimal effective concentration: Dirofilaria immitis, 72 h, read-out: DiL4 MED, Minimum Effective Dose, D. immitis L4 larvae motility, in vitro; for DiMf/DiL4: larval stage selectivity, ratio of DiMf MED to DiL4 MED.
Assay [1] has as its system microfilariae of Dirofilaria immitis. Description: Dirofilaria immitis, Microfilaria (DiMf) In Vitro Assay. As to conditions: Dirofilaria immitis, 72 h, read-out: DiMf MED, Minimum Effective Dose, D. immitis microfilariae motility, in vitro.
In assay [2] the test system is third stage larvae of Haemonchus contortus. Description: Haemonchus contortus, Larvae Stage 3 (HcL3) In Vitro Assay. Conditions: Haemonchus contortus, 96 h.
The mark [3] stands for this setting: read-out: HcL3 MED, Minimum Effective Dose, H. contortus third stage larvae, approximately 96 hours.
Setting [4] is: read-out: HcL3 MED, Haemonchus contortus third stage larvae in vitro, class mark appended to the Ex # in Table 3.
[5] abbreviates: read-out: HcL3 MED, approximately 96 hours incubation, multiple-resistant field isolate.
[6] abbreviates: read-out: HcL3 MED (symbol after Ex#), approximately 96 hours incubation, multiple-resistant field isolate.

Structures are written as SMILES. Read-outs that look alike come from different tables or passages of the source. Where only a bound is given, the exact number is not on record here.

In the case of `CC(C)C[C@H]1C(=O)O[C@H](Cc2ccc(Cc3ccnc(F)c3F)cc2)C(=O)N(C)[C@@H](CC(C)C)C(=O)O[C@H](C)C(=O)N(C)[C@@H](CC(C)C)C(=O)O[C@H](Cc2ccc(Cc3ccnc(F)c3F)cc2)C(=O)N(C)[C@@H](CC(C)C)C(=O)O[C@H](C)C(=O)N1C` [Example 3-326, (3S,6R,9S,12R,15S,18R,21S,24R)-6,18-bis(4-((2,3-difluoropyridin-4-yl)methyl)benzyl)-3,9,15,21-tetraisobutyl-4,10,12,16,22,24-hexamethyl-1,7,13,19-tetraoxa-4,10,16,22-tetraazacyclotetracosan-2,5,8,11,14,17,20,23-octaone], the minimal effective concentration with D. immitis L4 larvae is 0.0003 µM; in assay [1], 0.03 µM; in assay [2] (setting [3]), 10 µM. For the same compound, the DiMf/DiL4 in the assay with D. immitis L4 larvae is on record as 100.
Regarding `CC(C)C[C@H]1C(=O)O[C@H](Cc2ccc(Cc3cccnc3Br)cc2)C(=O)N(C)[C@@H](CC(C)C)C(=O)O[C@H](C)C(=O)N(C)[C@@H](CC(C)C)C(=O)O[C@H](Cc2ccc(Cc3cccnc3Br)cc2)C(=O)N(C)[C@@H](CC(C)C)C(=O)O[C@H](C)C(=O)N1C` [Example 3-329, (3S,6R,9S,12R,15S,18R,21S,24R)-6,18-bis(4-((2-bromopyridin-3-yl)methyl)benzyl)-3,9,15,21-tetraisobutyl-4,10,12,16,22,24-hexamethyl-1,7,13,19-tetraoxa-4,10,16,22-tetraazacyclotetracosan-2,5,8,11,14,17,20,23-octaone], the minimal effective concentration in the assay with D. immitis L4 larvae was 0.0001 µM; in assay [1], 0.001 µM; in assay [2] (setting [4]) it was less than 1 µM; in assay [2] (setting [5]), not above 1 µM. The DiMf/DiL4 in the assay with D. immitis L4 larvae came out at 10.
As for `CC(C)C[C@H]1C(=O)O[C@H](Cc2ccc(Cc3cnccc3C(F)(F)F)cc2)C(=O)N(C)[C@@H](CC(C)C)C(=O)O[C@H](C)C(=O)N(C)[C@@H](CC(C)C)C(=O)O[C@H](Cc2ccc(Cc3cnccc3C(F)(F)F)cc2)C(=O)N(C)[C@@H](CC(C)C)C(=O)O[C@H](C)C(=O)N1C` [Example 3-333, (3S,6R,9S,12R,15S,18R,21S,24R)-3,9,15,21-tetraisobutyl-4,6,10,16,18,22-hexamethyl-12,24-bis(4-((4-(trifluoromethyl)pyridin-3-yl)methyl)benzyl)-1,7,13,19-tetraoxa-4,10,16,22-tetraazacyclotetracosan-2,5,8,11,14,17,20,23-octaone], the minimal effective concentration is 0.0002 µM in the assay with D. immitis L4 larvae, 0.003 µM in assay [1], less than 1 µM in assay [2] (setting [4]) and not above 1 µM in assay [2] (setting [5]). Further, in the assay on D. immitis L4 larvae, the DiMf/DiL4 came to 17.
In the case of `COc1nccc(Cc2ccc(C[C@H]3OC(=O)[C@H](CC(C)C)N(C)C(=O)[C@@H](C)OC(=O)[C@H](CC(C)C)N(C)C(=O)[C@@H](Cc4ccc(Cc5ccnc(OC)c5OC)cc4)OC(=O)[C@H](CC(C)C)N(C)C(=O)[C@@H](C)OC(=O)[C@H](CC(C)C)N(C)C3=O)cc2)c1OC` [Example 3-334, (3S,6R,9S,12R,15S,18R,21S,24R)-6,18-bis(4-((2,3-dimethoxypyridin-4-yl)methyl)benzyl)-3,9,15,21-tetraisobutyl-4,10,12,16,22,24-hexamethyl-1,7,13,19-tetraoxa-4,10,16,22-tetraazacyclotetracosan-2,5,8,11,14,17,20,23-octaone], the minimal effective concentration is 0.0003 µM with D. immitis L4 larvae; 0.003 µM in assay [1]; less than 1 µM in assay [2] (setting [4]); 0.1 µM in assay [2] (setting [3]); not above 1 µM in assay [2] (setting [5]). Besides, the DiMf/DiL4 with D. immitis L4 larvae is recorded as 10.
Consider `CC(C)C[C@H]1C(=O)O[C@H](Cc2ccc(Cc3ccc4cn[nH]c4c3)cc2)C(=O)N(C)[C@@H](CC(C)C)C(=O)O[C@H](C)C(=O)N(C)[C@@H](CC(C)C)C(=O)O[C@H](Cc2ccccc2)C(=O)N(C)[C@@H](CC(C)C)C(=O)O[C@H](C)C(=O)N1C` [Example 4-18, (3S,6R,9S,12R,15S,18R,21S,24R)-6-(4-((1H-indazol-6-yl)methyl)benzyl)-18-benzyl-3,9,15,21-tetraisobutyl-4,10,12,16,22,24-hexamethyl-1,7,13,19-tetraoxa-4,10,16,22-tetraazacyclotetracosan-2,5,8,11,14,17,20,23-octaone], for which the minimal effective concentration with D. immitis L4 larvae was 0.001 µM; in assay [1] it was 0.05 µM; in assay [2] (setting [3]), more than 10 µM. The DiMf/DiL4 in the assay with D. immitis L4 larvae is recorded as 50.
In the case of `Cc1c[nH]c(C)c1Cc1ccc(C[C@H]2OC(=O)[C@H](CC(C)C)N(C)C(=O)[C@@H](C)OC(=O)[C@H](CC(C)C)N(C)C(=O)[C@@H](Cc3ccccc3)OC(=O)[C@H](CC(C)C)N(C)C(=O)[C@@H](C)OC(=O)[C@H](CC(C)C)N(C)C2=O)cc1` [Example 4-19, (3S,6R,9S,12R,15S,18R,21S,24R)-6-benzyl-18-(4-((2,4-dimethyl-1H-pyrrol-3-yl)methyl)benzyl)-3,9,15,21-tetraisobutyl-4,10,12,16,22,24-hexamethyl-1,7,13,19-tetraoxa-4,10,16,22-tetraazacyclotetracosan-2,5,8,11,14,17,20,23-octaone], the minimal effective concentration in the assay on D. immitis L4 larvae is 0.001 µM; in assay [1], 0.1 µM; in assay [2] (setting [3]), more than 10 µM. In the assay with D. immitis L4 larvae, the DiMf/DiL4 is 100.
In the case of `CC(C)C[C@H]1C(=O)O[C@H](Cc2ccc(C(O)c3coc4ccccc34)cc2)C(=O)N(C)[C@@H](CC(C)C)C(=O)O[C@H](C)C(=O)N(C)[C@@H](CC(C)C)C(=O)O[C@H](Cc2ccccc2)C(=O)N(C)[C@@H](CC(C)C)C(=O)O[C@H](C)C(=O)N1C` (stereo partly drawn) [Example 4-21, (3S,6R,9S,12R,15S,18R,21S,24R)-6-(4-(benzofuran-3-yl(hydroxy)methyl)benzyl)-18-benzyl-3,9,15,21-tetraisobutyl-4,10,12,16,22,24-hexamethyl-1,7,13,19-tetraoxa-4,10,16,22-tetraazacyclotetracosan-2,5,8,11,14,17,20,23-octaone], the minimal effective concentration in the assay on D. immitis L4 larvae is 0.001 µM; in assay [1], 0.05 µM; in assay [2] (setting [3]), more than 10 µM. Further, the DiMf/DiL4 in the assay with D. immitis L4 larvae amounted to 50.
Turning to `CC(C)C[C@H]1C(=O)O[C@H](Cc2ccc(Cc3ncco3)cc2)C(=O)N(C)[C@@H](CC(C)C)C(=O)O[C@H](C)C(=O)N(C)[C@@H](CC(C)C)C(=O)O[C@H](Cc2ccccc2)C(=O)N(C)[C@@H](CC(C)C)C(=O)O[C@H](C)C(=O)N1C` [Example 4-30, (3S,6R,9S,12R,15S,18R,21S,24R)-6-benzyl-3,9,15,21-tetraisobutyl-4,10,12,16,22,24-hexamethyl-18-(4-(oxazol-2-ylmethyl)benzyl)-1,7,13,19-tetraoxa-4,10,16,22-tetraazacyclotetracosan-2,5,8,11,14,17,20,23-octaone], the minimal effective concentration in the assay with D. immitis L4 larvae is 0.001 µM; in assay [1], 0.001 µM; in assay [2] (setting [6]), less than 1 µM; in assay [2] (setting [3]) it was 1 µM; in assay [2] (setting [5]), not above 1 µM. Besides, the DiMf/DiL4 with D. immitis L4 larvae stood at 1.
As for `CC(C)C[C@H]1C(=O)O[C@H](Cc2ccc(Cc3ccco3)cc2)C(=O)N(C)[C@@H](CC(C)C)C(=O)O[C@H](C)C(=O)N(C)[C@@H](CC(C)C)C(=O)O[C@H](Cc2ccccc2)C(=O)N(C)[C@@H](CC(C)C)C(=O)O[C@H](C)C(=O)N1C` [Example 4-32, (3S,6R,9S,12R,15S,18R,21S,24R)-6-benzyl-18-(4-(furan-2-ylmethyl)benzyl)-3,9,15,21-tetraisobutyl-4,10,12,16,22,24-hexamethyl-1,7,13,19-tetraoxa-4,10,16,22-tetraazacyclotetracosan-2,5,8,11,14,17,20,23-octaone], the minimal effective concentration is 0.001 µM with D. immitis L4 larvae; 0.003 µM in assay [1]; less than 1 µM in assay [2] (setting [6]); 1 µM in assay [2] (setting [3]); not above 1 µM in assay [2] (setting [5]). Further, the DiMf/DiL4 in the assay on D. immitis L4 larvae is 3.
Turning to `Cc1ccsc1Cc1ccc(C[C@H]2OC(=O)[C@H](CC(C)C)N(C)C(=O)[C@@H](C)OC(=O)[C@H](CC(C)C)N(C)C(=O)[C@@H](Cc3ccccc3)OC(=O)[C@H](CC(C)C)N(C)C(=O)[C@@H](C)OC(=O)[C@H](CC(C)C)N(C)C2=O)cc1` [Example 4-34, (3S,6R,9S,12R,15S,18R,21S,24R)-6-benzyl-3,9,15,21-tetraisobutyl-4,10,12,16,22,24-hexamethyl-18-(4-((3-methylthiophen-2-yl)methyl)benzyl)-1,7,13,19-tetraoxa-4,10,16,22-tetraazacyclotetracosan-2,5,8,11,14,17,20,23-octaone], the minimal effective concentration in the assay on D. immitis L4 larvae is 0.0003 µM; in assay [1], 0.01 µM; in assay [2] (setting [6]) it was less than 1 µM; in assay [2] (setting [3]), 0.5 µM; in assay [2] (setting [5]), not above 1 µM. Further, the DiMf/DiL4 with D. immitis L4 larvae is 33.3.
Turning to `CC(C)C[C@H]1C(=O)O[C@H](Cc2ccc(Cc3occc3C#N)cc2)C(=O)N(C)[C@@H](CC(C)C)C(=O)O[C@H](C)C(=O)N(C)[C@@H](CC(C)C)C(=O)O[C@H](Cc2ccccc2)C(=O)N(C)[C@@H](CC(C)C)C(=O)O[C@H](C)C(=O)N1C` [Example 4-40, 2-(4-(((2R,5S,8R,11S,14R,17S,20R,23S)-14-benzyl-5,11,17,23-tetraisobutyl-4,8,10,16,20,22-hexamethyl-3,6,9,12,15,18,21,24-octaoxo-1,7,13,19-tetraoxa-4,10,16,22-tetraazacyclotetracosan-2-yl)methyl)benzyl)furan-3-carbonitrile], the minimal effective concentration in the assay on D. immitis L4 larvae was 0.0002 µM; in assay [1], 0.0005 µM; in assay [2] (setting [6]), less than 1 µM; in assay [2] (setting [3]), 0.5 µM; in assay [2] (setting [5]) it was not above 1 µM. In the assay with D. immitis L4 larvae, the DiMf/DiL4 is on record as 2.5.
